Data from patent EP4660190A1, “PHARMACEUTICALLY ACCEPTABLE SALT OF COMPOUND AND PREPARATION METHOD THEREFOR” (Jiangsu Chia Tai Fenghai Pharmaceutical Co., Ltd., priority 2023, dated 2024).
“And” between values parts separate entries of the source, which are not always exact repeats. Identical values can stand only once.

Key:
[1] = tested on: Middle cerebral artery occlusion (MCAO) models of SD rats; experiment: Rat MCAO model, 7 daily doses, TTC staining cerebral infarction; format: in vivo
Description: Middle cerebral artery occlusion (MCAO) models of SD rats were constructed using the suture occlusion method to evaluate the neuroprotective effect of the compound on neurons of rats after cerebral ischemia-reperfusion. […] The ECA was ligated. The ICA was temporarily occluded. Sutures were threaded at both the proximal end and the distal end of CCA. The distal end was securely ligated, and a loosely tied knot was placed at the proximal end. A small incision was made on the CCA between these two sutures. […] The threading was halted temporarily when reaching the artery clamp of ICA. The pre-ligation suture was further tightened. The artery clamp blocking the blood flow in the ICA was removed, allowing the suture occlusion to be advanced into the ICA until it entered the intracranial region. […] The insertion was stopped at the moment, and the time was recorded. The artery clamp on the CCA was removed and the incision was closed after no active bleeding was observed. The ischemic rats were placed at room temperature to keep their body temperature at 37°C, and anesthesia induction could be carried out 120min later. The suture was slowly and gradually withdrawn when the rats were maintained under anesthesia, so that the proximal end of the suture returned to the ECA, thereby initiating reperfusion of the middle cerebral artery. […] A single dose was administered immediately after reperfusion (within 10 minutes), followed by one dose per day for a total of 7 consecutive doses (including the first dose). Except for the initial administration, all subsequent doses were given between 4:00 PM and 7:00 PM each day. […] Animals were euthanized 7 days after ischemia reperfusion, and the brains were rapidly taken, frozen, and dissected for TTC staining. The normal tissues were rose-red after staining, and the infarcted tissues were white. The infarct size (%) percentage, calculated as the weight of infarcted tissues to the weight of the whole brain, is used to evaluate the degree of cerebral ischemic injury in rats. […] Table 12 Cerebral infarct size and cerebral infarction inhibition rate of experimental animals

[2] = Distribution in plasma and brain tissues of rats; format: in vivo, Male SD rats; details: rat, 20mg/kg p.o.
Description: The concentration of compound in the plasma and brain tissue samples was quantified by liquid chromatography-tandem mass spectrometry (LC-MS/MS).

[3] = tested on: Middle cerebral artery occlusion (MCAO) models of SD rata; experiment: Rat MCAO model, 28-day dosing, grid walking test; format: in vivo, SD rats; details: Mean±SD
Description: (§1) Middle cerebral artery occlusion (MCAO) models of SD rata were constructed by using the suture occlusion method. The rats were administered with the test compound for 28 consecutive days. The pharmacodynamic evaluation on the test compound for cerebral stroke was obtained based on general observation and neurobehavioral assessment. […] The ECA was ligated. The ICA was temporarily occluded. Sutures were threaded at both the proximal end and the distal end of CCA. The distal end was securely ligated, and a loosely tied knot was placed at the proximal end. A small incision was made on the CCA between these two sutures. […] The threading was halted temporarily when reaching the artery clamp of ICA. The pre-ligation suture was further tightened. The artery clamp blocking the blood flow in the ICA was removed, allowing the suture occlusion to be advanced into the ICA until it entered the intracranial region. […] The insertion was stopped at the moment, and the time was recorded. The artery clamp on the CCA was removed and the incision was closed after no active bleeding was observed. The ischemic rats were placed at room temperature to keep their body temperature at 37°C, and anesthesia induction could be carried out 120min later. The suture was slowly and gradually withdrawn under anesthesia until the proximal end retracted into the ECA, thereby initiating reperfusion of the middle cerebral artery. Animals received the designated dosage immediately (within 10 min) after reperfusion. This dosing regimen continued once daily for a duration of 28 days, with the day of operation being defined as D1 (Day 0). […] After the completion of the 28-day dosing period, all surviving animals in the study were euthanized, and their brains were rapidly collected for pathological analysis. […] Table 8 Results of Grid Walking Test

[4] = tested on: Middle cerebral artery occlusion (MCAO) models of SD rata; experiment: Rat MCAO model, 28-day dosing, novel object recognition test; format: in vivo, SD rats; details: test on D27, Mean±SD
Description: as §1, with “Test (2) A novel object recognition test was performed on the last day of the treatment and the novel object recognition index (NRI) of animals in each group was calculated. […] The result has shown that Compound (I) has significant effect on animals with cognitive impairment caused by stroke (see details in Table 9). Table 9 Results of novel object recognition tests” for “Test”

[5] = 60mg/kg oral, 7 daily doses, 7 days after reperfusion, Mean±SD

## (Z)-3-(1-hydroxybutenyl)benzofuran-2-one tromethamine salt [Example 10]
[1]; rat, in vivo
  Cerebral infarction inhibition rate (%): 26.236± 12.737% and 31.023± 11.150%
  Infarct Size (%): 14.717±2.541 % and 13.762±2.225 %
  Infarct area weight: 0.183 ± 0.036 g and 0.176 ± 0.030 g

## CCC/C(O)=C1/C(=O)Oc2ccccc21 [Compound (I)]
[2]; 0.5 h
  Measured value in brain tissues Concentration: 8733.3 ng/g
  Measured value in plasma Concentration: 241333.3 ng/mL
[2]; 1 h
  Measured value in brain tissues Concentration: 5726.7 ng/g
  Measured value in plasma Concentration: 192333.3 ng/mL
[2]; 4h
  Measured value in brain tissues Concentration: 5030.0 ng/g
  Measured value in plasma Concentration: 182333.3 ng/mL
[2]; 24 h
  Measured value in brain tissues Concentration: 285.3 ng/g
  Measured value in plasma Concentration: 23500.0 ng/mL
[3]; high dose 20mg/kg p.o. q.d., 1W after operation, 20 mg/kg
  Misstep frequency (times): 4.23±1.44 times
[3]; high dose 20mg/kg p.o. q.d., 1W after operation, listed as compound (I), 20 mg/kg
  Misstep frequency (times): 4.23±1.44 times
[3]; high dose 20mg/kg p.o. q.d., 2W after operation
  Misstep frequency (times): 3.23± 2.56 times
[3]; high dose 20mg/kg p.o. q.d., 3W after operation
  Misstep frequency (times): 2.50± 0.81 times
[3]; high dose 20mg/kg p.o. q.d., 4W after operation
  Misstep frequency (times): 1.42± 1.11 times
[3]; low dose 6mg/kg p.o. q.d., 1W after operation, 6 mg/kg
  Misstep frequency (times): 5.33± 2.33 times
[3]; low dose 6mg/kg p.o. q.d., 1W after operation, listed as compound (I), 6 mg/kg
  Misstep frequency (times): 5.33±2.33 times
[3]; low dose 6mg/kg p.o. q.d., 2W after operation
  Misstep frequency (times): 6.33± 3.53 times
[3]; low dose 6mg/kg p.o. q.d., 3W after operation
  Misstep frequency (times): 4.38± 2.44 times
[3]; low dose 6mg/kg p.o. q.d., 4W after operation
  Misstep frequency (times): 2.58± 1.55 times
[4]; high dose 20mg/kg p.o. q.d.
  Recognition index (%) Familiar object: 28.34± 17.06%
  Sniffing time (S) Familiar object: 2.20± 1.66 S
  Sniffing time (S) Novel object: 5.62± 3.60 S
[4]; high dose 20mg/kg p.o. q.d., 20 mg/kg
  Recognition index (%) Novel object: 71.66±17.06%
[4]; low dose 6mg/kg p.o. q.d.
  Recognition index (%) Familiar object: 29.02± 22.60%
  Sniffing time (S) Familiar object: 1.54± 1.10 S
  Sniffing time (S) Novel object: 4.74± 3.61 S
[4]; low dose 6mg/kg p.o. q.d., 6 mg/kg
  Recognition index (%) Novel object: 70.98±22.60%

## CCCCC1OC(=O)c2ccccc21 (stereo not drawn) [Butylphthalide, butylphthalide, reference compound]
[2]; 0.5 h
  Measured value in brain tissues Concentration: 28.5 ng/g
  Measured value in plasma Concentration: 26.0 ng/mL
[2]; 1 h
  Measured value in brain tissues Concentration: 22.8 ng/g
  Measured value in plasma Concentration: 19.1 ng/mL
[2]; 4h
  Measured value in brain tissues Concentration: 10.2 ng/g
  Measured value in plasma Concentration: 7.2 ng/mL
[2]; 24 h
  Measured value in plasma Concentration: 1.7 ng/mL
[3]; 60mg/kg p.o. q.d., 1W after operation, listed as NBP
  Misstep frequency (times): 7.37±3.03 times
[3]; 60mg/kg p.o. q.d., 2W after operation
  Misstep frequency (times): 8.10± 2.97 times
[3]; 60mg/kg p.o. q.d., 3W after operation
  Misstep frequency (times): 6.27± 2.890 times
[3]; 60mg/kg p.o. q.d., 4W after operation
  Misstep frequency (times): 2.10± 1.46 times
[4]; 60mg/kg p.o. q.d.
  Sniffing time (S) Familiar object: 1.60± 1.01 S
  Sniffing time (S) Novel object: 4.94± 3.60 S
[1]; [5]
  Cerebral infarction inhibition rate (%): 28.624±14.597%
  Infarct Size (%): 14.241±2.912%
  Infarct area weight: 0.175 ± 0.032 g
